Data as given in patent US20050130252A1, “Stabilized susceptibility tests of aerobic pathogens” (Wyeth Holdings Corporation, priority 2003, published 2005).
≈ marks a conversion by molar mass, not a printed value. Read-outs that look alike come from different tables or passages of the source.

Experiments:
Type in all cases: cell-based
[1] = test system: Enterococcus faecalis GC4555 ATCC Control; assay: Broth microdilution MIC; details: for In Vitro Activity of Tigecycline: Broth, E. faecalis GC4555 ATCC Control; for MIC: Enterococcus faecalis, E. faecalis GC4555 (ATCC Control), read-out: Minimal Inhibitory Concentration
Protocol: (§1) The process for preparing susceptibility test medium are the following steps: • a. Preparing Mueller Hinton Broth II medium by adding 22 grams powdered media to 1.0 liter distilled water; • b. Autoclaving (121° C., 15 psi, 15 minutes) and cooling the medium; • c. Adding Oxyrase® up to about 10% final volume and keeping at 35-37° C. in an incubator for 30 minutes; • d. Adding about 50 μL to each well of a 96 well microtiter plate; • e. Weighing drug and adding broth to drug to bring up to about (standard 128 μg/ml); • f. Adding 50 μL of the drug to the first column of the titer plate; • g. Diluting by two-fold serial diluting across or down the plate. • h. Preparing a Prompt™ inoculum at 10^8 CFU/ml; • i. Diluting inoculum 1:100 in the broth at […] in 9.9 ml (1:100) is 10^6 colony forming units (CFU) forming the adjusted inoculum; • j. Adding 50 μL of the adjusted inoculum to the wells of the microtiter plate; • k. Incubating the plates at 35-37° C. for 18-22 hours; and • l. Reading, with the unaided eye, the MIC.
(§2) The in vitro activities of tigecycline and control antibiotics were determined by the broth microdilution method as recommended by the NCCLS. (National Committee for Clinical Laboratory Standards, 2003. Methods for Dilution Antimicrobial Susceptibility Tests for Bacteria That Grow Aerobically; Approved Standards: M7-A6, Sixth ed, vol. 23., National Committee for Clinical Laboratory Standards Wayne, Pa.) was used for the standard procedures. MBH with 5% lysed horse blood was used for testing S. pneumoniae and Haemophilus Test Medium was used for testing H. influenzae. Oxyrase® (Oxyrase Inc, Mansfield, Ohio) was used according to the manufacturer's instructions by adding 1 ml of Oxyrase® to 50 ml of media. Media age studies were performed by preparing MHB in multiple flasks, then storing the media under various conditions. MICs were usually performed in duplicate on each day of testing. Storage under anaerobic conditions was conducted in an anaerobic chamber (MACS MG 1000, Don Whitley Scientific LTD). The pH of the media was determined by pH meter (Corning 430). A comparison of the in vitro activity of tigecycline by agar and broth dilution methodolgies with and without Oxyrase® against clinical isolates is shown in Table 1.

[2] = test system: Escherichia coli GC2270 tet(M); assay: Broth microdilution MIC; details: for MIC: Escherichia coli, read-out: Minimal Inhibitory Concentration
Protocol: as §1, §2

[3] = test system: Escherichia coli GC1073 tet(B) wt; assay: Broth microdilution MIC; details: for In Vitro Activity of Tigecycline: Broth, E. coli GC1073 tet(B) wt
Protocol: as §1, §2

[4] = test system: Enterococcus faecalis GC2267 tet(L) + (M) + (S); assay: Broth microdilution MIC; details: for In Vitro Activity of Tigecycline: Broth, E. faecalis GC2267 tet(L) + (M) + (S); for MIC: Enterococcus faecalis, read-out: Minimal Inhibitory Concentration
Protocol: as §1, §2

[5] = test system: Escherichia coli GC4559 parent GC4560; assay: Broth microdilution MIC; details: E. coli GC4559; for In Vitro Activity of Tigecycline: Broth; for MIC: Escherichia coli, read-out: Minimal Inhibitory Concentration
Protocol: as §1, §2

[6] = test system: Staphylococcus aureus GC1079 tet(K); assay: Broth microdilution MIC
Protocol: as §1, §2

[7] = test system: S. pyogenes GC4563 (Clinical); assay: Broth microdilution MIC; details: Streptococcus pyogenes, read-out: Minimal Inhibitory Concentration
Protocol: as §1, §2

[8] = test system: Staphylococcus aureus GC6467 Clinical - tet(M) + (K); assay: Broth microdilution MIC; details: S. aureus GC6467 tet(M) + (K)
Protocol: as §1, §2

[9] = test system: Staphylococcus aureus GC6466 Clinical - tet(M); assay: Broth microdilution MIC; details: for In Vitro Activity of Tigecycline: Broth, S. aureus GC6466 tet(M); for MIC: Staphylococcus aureus, read-out: Minimal Inhibitory Concentration
Protocol: as §1, §2

[10] = test system: S. pneumoniae GC4465 (Clinical); assay: Broth microdilution MIC; details: Streptococcus pneumoniae, read-out: Minimal Inhibitory Concentration
Protocol: as §1, §2

[11] = test system: M. catarrhalis GC6907 (Clinical); assay: Broth microdilution MIC; details: Moraxella catarrhalis, read-out: Minimal Inhibitory Concentration
Protocol: as §1, §2

[12] = test system: S. pneumoniae GC1894 (Clinical); assay: Broth microdilution MIC; details: Streptococcus pneumoniae, read-out: Minimal Inhibitory Concentration
Protocol: as §1, §2

[13] = test system: Candida albicans GC3066 ATCC Control; assay: Broth microdilution MIC; details: for In Vitro Activity of Tigecycline: Broth, C. albicans GC3066 ATCC Control; for MIC: Candida albicans, C. albicans GC3066 ATCC (Control), read-out: Minimal Inhibitory Concentration
Protocol: as §1, §2

[14] = test system: Escherichia coli GC2203 ATCC Control; assay: Broth microdilution MIC; details: for In Vitro Activity of Tigecycline: Broth, E. coli GC2203 ATCC Control; for MIC: Escherichia coli, E. coli GC2203 (ATCC Control), read-out: Minimal Inhibitory Concentration
Protocol: as §1, §2

[15] = test system: Enterococcus faecalis GC2267 tet(L) + (M) + (S); assay: Agar dilution in vitro activity; details: E. faecalis GC2267 tet(L) + (M) + (S)
Protocol: as §2

[16] = test system: Staphylococcus aureus GC1079 tet(K); assay: Agar dilution in vitro activity; details: S. aureus GC1079 tet(K)
Protocol: as §2

[17] = 336 h, Aged Media (two weeks at RT)

SMILES: CN(C)c1cc(NC(=O)CNC(C)(C)C)c(O)c2c1C[C@H]1C[C@H]3[C@H](N(C)C)C(O)=C(C(N)=O)C(=O)[C@@]3(O)C(O)=C1C2=O [Tigecycline, tigecycline]
- In Vitro Activity of Tigecycline ([1]; Oxyrase (2%)): 0.06
- In Vitro Activity of Tigecycline ([1]; no Oxyrase): 0.50
- MIC [1, 17]: 0.25 µg/mL (≈ 0.427 µM)
- MIC ([1]; Fresh Media): 0.03 µg/mL (≈ 0.0512 µM)
- In Vitro Activity of Tigecycline ([2]; Broth, no Oxyrase, E. coli GC2270 tet(M)): 0.50
- MIC ([2]; 336 h): 0.25 µg/mL (≈ 0.427 µM)
- MIC [2]: 0.06 µg/mL (≈ 0.102 µM)
- In Vitro Activity of Tigecycline ([3]; Oxyrase (2%)): 0.12
- In Vitro Activity of Tigecycline ([3]; no Oxyrase): 0.50
- MIC ([3]; Escherichia coli, read-out: Minimal Inhibitory Concentration): 0.12 µg/mL (≈ 0.205 µM)
- In Vitro Activity of Tigecycline ([4]; Oxyrase (2%)): 0.12
- In Vitro Activity of Tigecycline ([4]; no Oxyrase): 0.50
- MIC ([4]; 336 h): 0.25 µg/mL (≈ 0.427 µM)
- MIC [4]: 0.12 µg/mL (≈ 0.205 µM)
- In Vitro Activity of Tigecycline ([5]; Oxyrase (2%)): 0.12
- In Vitro Activity of Tigecycline ([5]; no Oxyrase): 0.50
- MIC [5, 17]: 0.12 µg/mL (≈ 0.205 µM)
- MIC ([5]; Fresh Media): 0.06 µg/mL (≈ 0.102 µM)
- In Vitro Activity of Tigecycline ([6]; Broth, no Oxyrase, S. aureus GC1079 tet(K)): 0.50
- MIC ([6]; Staphylococcus aureus, read-out: Minimal Inhibitory Concentration): 0.25 µg/mL (≈ 0.427 µM)
- MIC [7, 17]: 0.03 µg/mL (≈ 0.0512 µM)
- MIC ([7]; Fresh Media): < 0.008 µg/mL
- In Vitro Activity of Tigecycline ([8]; Oxyrase (2%)): 0.50
- In Vitro Activity of Tigecycline ([8]; no Oxyrase): 1
- In Vitro Activity of Tigecycline ([9]; Oxyrase (2%)): 0.12
- In Vitro Activity of Tigecycline ([9]; no Oxyrase): 0.50
- MIC ([9]; 336 h): 0.25 µg/mL (≈ 0.427 µM)
- MIC [9]: 0.12 µg/mL (≈ 0.205 µM)
- MIC [10, 17]: 0.03 µg/mL (≈ 0.0512 µM)
- MIC ([10]; Fresh Media): < 0.008 µg/mL
- MIC [11, 17]: 0.03 µg/mL (≈ 0.0512 µM)
- MIC ([11]; Fresh Media): 0.015 µg/mL (≈ 0.0256 µM)
- MIC [12, 17]: 0.03 µg/mL (≈ 0.0512 µM)
- MIC ([12]; Fresh Media): < 0.008 µg/mL
- In Vitro Activity of Tigecycline ([13]; Oxyrase (2%)): >16
- In Vitro Activity of Tigecycline ([13]; no Oxyrase): >16
- MIC [13, 17]: > 8 µg/mL
- MIC ([13]; Fresh Media): > 8 µg/mL
- In Vitro Activity of Tigecycline ([14]; Oxyrase (2%)): 0.12
- In Vitro Activity of Tigecycline ([14]; no Oxyrase): 0.25
- MIC [14, 17]: 0.12 µg/mL (≈ 0.205 µM)
- MIC ([14]; Fresh Media): 0.03 µg/mL (≈ 0.0512 µM)
- In Vitro Activity of Tigecycline ([15]; Oxyrase (10%)): 0.12
- In Vitro Activity of Tigecycline ([15]; no Oxyrase): 0.25
- In Vitro Activity of Tigecycline ([16]; Oxyrase (10%)): 0.25
- In Vitro Activity of Tigecycline ([16]; no Oxyrase): 0.5
